Key:
NCI-H2122 xenograft = assay: NSCLC H2122 xenograft model, tumor volume; format: in vivo, BALB/c nude mice; settings: 60 mg/kg oral once daily vs AMG510 at 60 mg/kg; FIG. 3
Protocol: (§1) All the procedures related to animal handling, care and the treatment in this study were performed according to the guidelines approved by the Institutional Animal Care and Use Committee (IACUC) of SIPPER B&K following the guidance of the Association for Assessment and Accreditation of Laboratory Animal Care (AAALAC). At the time of routine monitoring, the animals were checked for any effects of tumor growth on normal behavior such as mobility, food and water consumption (by looking only), body weight gain/loss (body weights were measured twice weekly), eye/hair matting and any other abnormal effect. Death and observed clinical signs were recorded on the basis of the numbers of animals within each subset.
The NCI-H358, SW837, NCI-H2122 tumor cells were purchased from the American Type Culture Collection (ATCC). Cells were maintained in vitro as monolayer cultured in RPMI-1640 or DMEM medium supplemented with 10% fetal bovine serum, 50 IU/ml penicillin/streptomycin (GIBCO) at 37° C. in an atmosphere of 5% CO2 in air. […] The cells growing in an exponential growth phase were harvested and counted for tumor inoculation. […]
(§2) Tumor volume was calculated by measuring two perpendicular diameters using the following formula: (L×W 2)/2 in which L and W refer to the length and width tumor diameter, respectively. Results are expressed as mean and standard deviation of the mean.

[1] = Rat PK study, single i.g. dose; format: in vivo; settings: female, SD, plasma, PO, 10 mg/kg
Protocol: The pharmacokinetic (PK) profile of compounds following single i.g in SD rat obtained from […] Laboratory Animal Co., LTD of Shanghai was determined. Three female rats of weight around 220 g were used. Compounds were prepared at 1 mg/ml with the formulation of 10% DMSO+10% solutol HS15+80% (10% HPβCD in water). Blood samples (0.2 mL) were collected at 0 h (pre-dose) and 0.25, 0.5, 1, 2, 4, 8, 24 h time points after administration of compounds at the dose of 10 mg/kg. The collected blood samples were centrifuged without delay and the plasma was separated and transferred into tubes before storage at -70° C. prior to analysis. Aliquots of the plasma unknowns, blank and calibration standards were placed in 1.5 mL tubes and mixed with acetonitrile/methanol (1/1, v/v) containing IS. After vortexing for 5 min, each sample was centrifuged at 14000 rpm at 4° C. for 10 min. The supernatant were injected into the LC-MS/MS system. […] Eluates were analyzed using an API4000 Q-Trap mass spectrometer with a TurboIonSpray interface. Chromatographic separation was done with a mobile phase composed of water with 0.1% formic acid (solution A) and acetonitrile with 0.1% formic acid (solution B). The mobile phase was delivered at a flow rate of 0.6 mL/min, using a stepwise gradient elution program. To improve the sensitivity of the test compound screening, a MRM method in positive electrospray ionization mode was employed. Mass spectrometry data was acquired and analyzed using AB Sciex Analyst version 1.6.2 software. The pharmacokinetic parameters were derived using standard noncompartmental methods with Phoenix WinNonLin Professional Version 8.1.

[2] = system: Lung cancer cell line NCI-H358 containing KRas G12C mutation; assay: Assay for cell proliferation (Cell-titer Glo, 5 days); format: cell-based, human
Outline: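 NCI-H358 (KRas G12C) cells, 2000 per well, attached overnight at 37 °C, 5% CO2, then treated with compound for 5 days at 0.5% DMSO final. Proliferation measured by CellTiter-Glo luminescence after 10 min at RT.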

NCI-H358 xenograft = assay: NSCLC H358 xenograft model, tumor volume; format: in vivo, BALB/c nude mice; settings: for reduction of tumor volume, combined treatment vs either agent alone: FIG. 5
Protocol: as §1
(§3) The NCI-H358, SW837, NCI-H2122 tumor cells were purchased from the American Type Culture Collection (ATCC). Cells were maintained in vitro as monolayer cultured in RPMI-1640 or DMEM medium supplemented with 10% fetal bovine serum, 50 IU/ml penicillin/streptomycin (GIBCO) at 37° C. in an atmosphere of 5% CO2 in air. The tumor cells were routinely sub cultured twice weekly by trypsin-EDTA treatment. The cells growing in an exponential growth phase were harvested and counted for tumor inoculation.
(§4) For tumor bearing models, female 6- to 8-week-old athymic BALB/c nude mice were used for human cancer cell lines. Each mouse was inoculated subcutaneously at the right flank with tumor cells (10×10^6) in 0.1 ml of PBS. The treatments were started when the average tumor size reached approximately 200-250 mm^3. Carboplatin, Cisplatin was injected twice a week by i.p. Vehicles and other test articles were given orally as a suspension by gavage once daily during the study or treatment period.
as §2

SW837 xenograft = assay: Colorectal adenocarcinoma SW837 xenograft model, tumor volume; format: in vivo, BALB/c nude mice; settings: 30 mg/kg oral once daily vs AMG510 at 60 mg/kg; FIG. 1
Protocol: as §1, §3, §4, §2

C=CC(=O)N1C[C@H](C)N(c2nc(=O)n(-c3c(C4CC4)ncnc3C3CC3)c3nc(-c4c(N)cccc4F)c(Cl)cc23)C[C@H]1C [Compound 126]
reducing tumor volume compared with AMG510 (NCI-H2122 xenograft): more effective than AMG510 | AUC(0-t) ([1]; read-out: Rat PO (10 mpk) AUC last): 3.8 µM·h | Cmax ([1]; read-out: Rat PO (10 mpk) Cmax): 1060 nM | bioavailability ([1]; read-out: Rat PO (10 mpk) F %): 54% | potency in inhibiting KRAS G12C compared with corresponding isopropyl analogs [2]: better potency | IC50 ([2]; Homo sapiens, NCI-H358, 120 h, NCI-H358, 5 days, Cell-titer Glo, read-out: IC50 (nM), Inhibition of NCI-H358 Cell Proliferation): 0.6 nM | fold more potent: 2-amino-6-fluoro-phenyl compound vs. corresponding 2-fluoro-phenyl compound at R8 ([2]; NCI-H358 IC50 comparison): about 15 × | reducing tumor volume compared with AMG510 (NCI-H358 xenograft; 30 mg/kg oral once daily vs AMG510 at 30 mg/kg, FIG. 2): more effective than AMG510 | reduction of tumor volume, combined treatment vs either agent alone (NCI-H358 xenograft; Compound 126 at 5 mg/kg combined with RMC-4550 at 10 mg/kg): much better reduction of tumor volume | reduction of tumor volume, combined treatment vs either agent alone (NCI-H358 xenograft; Compound 126 at 5 mg/kg combined with cisplatin at 2 mg/kg): much better reduction of tumor volume | reducing tumor volume compared with AMG510 (SW837 xenograft): more effective than AMG510
